Experimental data taken from patent US20050239751A1, “Heterocyclic anti-viral compounds comprising metabolizable moieties and their uses” (Rigel Pharmaceuticals, Inc., priority 2004, published 2005).
Where two headings read alike, the source gives them in different places.

Tests used:
[1] = system: HCV NS5A protein in 9-13 replicon cells; assay: Replicon quantitative Western blot assay (HEPC_REPLICON-ICWESTERN); assay type: cell-based; settings: Hepatitis C virus; Table 14; read-out: HEPC_REPLICON-ICWESTERN Result Value
Experimental: Alternatively, the inhibitory activity of the metabolically active agents of the prodrugs can be confirmed using a quantitative Western immunoblot assay utilizing antibodies specific for HCV non-structural proteins, such as NS3, NS4A NS5A and NS5B. In one embodiment of this assay, replicon cells are treated with varying concentrations of test prodrug to determine the concentration of the metabolically active agent of the test prodrug that yields a 50% reduction in the amount of a non-structural protein produced as compared to a control sample (IC50). A single non-structural protein may be quantified or multiple non-structural proteins may be quantified. Antibodies suitable for carrying out such immunoblot assays are available commercially (e.g., from BIODESIGN International, Saco, Me.).
Certain prodrugs of the invention, which may inhibit HCV translation or replication prior to metablism and/or are metabolized into active agents, were also tested for their ability to inhibit HCV replication using a quantitative Western blot analysis with antibodies specific for the HCV NS5A or other non-structural proteins. Actively dividing 9-13 replicon cells were seeded into 6-well plates at a density of 1×10^5 cells/well in a volume of 2 ml/well and incubated at 37° C. and 5% CO2 for 24 hours. Various concentrations of test prodrugs (in a volume of 10 ul) were added to the wells and the cells incubated for another 48 hours. Protein samples were prepared from the cultured cells, resolved on a SDS-PAGE gel and transferred to a nitrocellulose membrane. The membrane was blocked with 5% non-fat milk in PBS for 1 hour at room temperature. Primary antibody (anti NS5A antibody; BIODESIGN International, Saco, Me.) incubation was performed for 1 hour at room temperature, after which the membrane was washed 3 times (for 15 min per time) with PBST (PBS plus 0.1% Tween 20). Horseradish peroxidase conjugated secondary antibody incubation was performed for 1 hour at room temperature and the membrane was washed 3 times (for 15 min per time) with PBST. The membrane was then soaked in substrate solution (Pierce) and exposed to a film or quantified using an imager. In this assay, the amount of test prodrug that is believed to be transformed into an active agent under the given conditions that yielded a 50% reduction in the amount of NS5A protein translated as compared to a control sample (IC50) was determined.

[2] = system: HCV replicon in 5-2 Luc replicon-comprising cells; assay: HCV replicon assay (luciferase; HEPC_REPLICON-LUC); assay type: cell-based, Hepatitis C virus; settings: Hepatitis C virus
Excerpt: In one embodiment, the inhibitory activity of the metabolically active agent of the prodrug can be confirmed in a replicon assay that assesses the ability of a test compound to block or inhibit HCV replication in replicon cells. One example of a suitable replicon assay is the liver cell-line Huh 7-based replicon assay described in Lohmann et al., 1999, Science 285:110-113. A specific example of this replicon assay which utilizes luciferase translation is provided in the Examples Section. In one embodiment of this assay, the amount of test prodrug that yields a 50% reduction in translation as compared to a control cell (IC50) may be determined.
The inhibitory activity of certain prodrugs of the invention, which may inhibit HCV translation or replication prior to metablism and/or are metabolized into active agents, was confirmed using an HCV replicon assay. The HCV replicon can include such features as the HCV 5′ untranslated region including the HCV IRES, the HCV 3′ untranslated region, selected HCV genes encoding HCV polypeptides, selectable markers, and a reporter gene such as luciferase, GFP, etc. In the assay, actively dividing 5-2 Luc replicon-comprising cells (obtained from Ralf Bartenschlager; see Lohmann et al., 1999, Science 285:110-113) were seeded at a density of between about 5,000 and 7,500 cells/well onto 96 well plates (about 90 µl of cells per well) and incubated at 37° C. and 5% CO2 for 24 hours. Then, the test prodrug (in a volume of about 10 PI) was added to the wells at various concentrations and the cells were incubated for an additional 24-48 hours before luciferase assay. The media was aspirated from each well and Bright-Glo (Promega, Madison, WI) luciferase assay reagents were added to each well according to the manufacturer's instructions. Briefly, the BrightGlo reagent was diluted 1:1 with PBS and 100 µl of diluted reagent was added to each well. After 5 min of incubation at room temperature, luciferin emission was quantified with a luminometer. In this assay, the amount of test prodrug that yielded a 50% reduction in luciferase emission (IC50) was determined. This IC50 value may represent the antiviral activity of the prodrug itself, the activity of prodrug transformed into its active metabolized form, or a combination of the two.
In TABLES 3 through 12, a value of “+” indicates an IC50 of 10 μM or less in the specified assay; a value of “−” indicates an IC50 of greater than 10 μM in the specified assay.

[3] = Biliary excretion in rats after oral administration; assay type: in vivo; settings: rat, four hours after oral administration
Experimental: Evidence for the conversion of prodrug 1107 to its active metabolite in rat liver was obtained by measuring prodrug and active compound concentrations in bile fluid.
(§1) Compounds were dissolved in a mixture of TPGS:PEG:PG (35%:60%:5%) and diluted with saline for oral administration. Typically, 6.5mg of compound was dissolved in 1 ml of the organic mixture and added to 5.5 ml of saline. Animals were dosed with 5 ml/kg of this mixture to give a typical dose of 5 mg/kg. All animal studies were conducted in male SpraqueDawley rats and the animals were fasted overnight prior to dose administration. Surgeries (to implant blood sampling cannula) were conducted at least two days prior to the study. Blood samples (100 μl) were collected using sodium heparin as anticoagulant and added to 300 μl of a mixture of acetate buffer (100 mM, pH=6.5):acetonitrile:ethanol:DMSO (2:1:1:2 v/v). Samples were centrifuged and the supernatant was analyzed by LC/MS/MS using the procedures outlined above. Standard were prepared similarly using fresh rat blood from naive animals.
Esterases are present in various tissues in the liver and may further degrade the active parent compound prior to reaching the HepC virus that is localized within hepatocyte cells. Experiments with radio-labeled the active parent compound indicate that the active parent compound is excreted from the body through bile (data not shown). […]

[4] = Rat pharmacokinetic study, portal and jugular vein cannula, oral administration; assay type: in vivo
Experimental: Pharamcokinetic studies were conducted in rats containing surgically implanted cannula in the portal and jugular veins. Blood samples were taken simultaneously from both cannula at various times after oral administration of the compounds. In the portal vein, the prodrugs are detected and, in some cases, the active compound, A-B-C-NHCOCHX2, has also been detected. The presence of active compound in the portal vein samples has been attributed to metabolism of the prodrug in transit through the gut wall. […] In the jugular samples, many, but not all, of the prodrugs have been detected in systemic circulation, depending on the hepatic extraction ratio of the prodrug.
as §1, with “Blood samples (100 μl) were collected using sodium heparin as anticoagulant and added to 300 μl of a mixture of acetate buffer (100 mM, pH=6.5):acetonitrile:ethanol:DMSO (2:1:1:2 v/v).” left out, “Standard were prepared similarly using fresh rat blood from naive animals.” left out

[5] = Table 14, read-out: HEPC_REPLICON-LUC Result Value

Row | SMILES | IC50 [1] [nM] | IC50 [2, 5] [nM] | further results
1 | O=C(C(Cl)Cl)N(CCCc1ccc(N2CCNCC2)cc1)c1ccnc(-c2cc(-c3c(Cl)cccc3Cl)no2)c1 [Cpd. 1043, 2,2-Dichloro-N-(2-(3-(2,6-dichlorophenyl)isoxazol-5-yl)pyridin-4-yl)-N-(3-(4-(piperazin-1-yl)phenyl)propyl)acetamide] | 1000 to 20000 | 1000 to 20000 | 
2 | CCN1CCN(c2ccc(CN(C(=O)C(Cl)Cl)c3ccnc(-c4cc(-c5c(Cl)cccc5Cl)no4)c3)cc2)CC1 [Cpd. 1023, 2,2-Dichloro-N-(2-(3-(2,6-dichlorophenyl)isoxazol-5-yl)pyridin-4-yl)-N-(4-(4-ethylpiperazin-1-yl)benzyl)acetamide] | < 1000 |  | 
3 | O=C(C(Cl)Cl)N(Cc1ccc(OCCN2CCOCC2)cc1)c1ccnc(-c2cc(-c3c(Cl)cccc3Cl)no2)c1 [Cpd. 1022, 2,2-Dichloro-N-(2-(3-(2,6-dichlorophenyl)isoxazol-5-yl)pyridin-4-yl)-N-(4-(2-morpholinoethoxy)benzyl)acetamide] | < 1000 |  | 
4 | O=C(c1cccc(-c2cc(-c3c(Cl)cccc3Cl)no2)c1)N(Cc1oc(=O)oc1COC1CC(O)C(O)C(CO)O1)C(=O)C(Cl)Cl (stereo not shown) [Cpd. 1044] | < 1000 | < 1000 | 
5 | CC(C)(C)OP(=O)(Cc1ccc(CCCN(C(=O)C(Cl)Cl)c2ccnc(-c3cc(-c4c(Cl)cccc4Cl)no3)c2)cc1)OC(C)(C)C [Cpd. 1041, Di-tert-Butyl 4-(3-(2,2-Dichloro-N-(2-(3-(2,6-dichlorophenyl)isoxazol-5-yl)pyridin-4-yl)acetamido)propyl)benzylphosphonate] | 1000 to 20000 | 1000 to 20000 | 
6 | O=C(C(Cl)Cl)N(CCCc1ccc(CP(=O)(O)O)cc1)c1ccnc(-c2cc(-c3c(Cl)cccc3Cl)no2)c1 [Cpd. 1042, 4-(3-(2,2-Dichloro-N-(2-(3-(2,6-dichlorophenyl)isoxazol-5-yl)pyridin-4-yl)acetamido)propyl)benzylphosphonic Acid] | > 20000 |  | 
7 | CC(C)(C)c1oc(=O)oc1CN(C(=O)C(Cl)Cl)c1ccnc(-c2cc(-c3c(Cl)cccc3Cl)no2)c1 [Cpd. 1107, 2,2-dichloro-N-[2′-[3′-(2′,6′-dichlorophenyl)-5′-isoxazoyl](4-pyridyl)]-N-[(5-t-butyl-1,3-dioxolene-2-one4-yl)methylene] acetamide] |  |  | Prodrug and resultant active compound levels in bile fluid [3]: High levels; IC50 ([2]; Tables 3-12, 50% reduction in luciferase emission, 5-2 Luc replicon cells, read-out: Replicon (IC50)): ≤ 10000 nM; Cmax ([4]; Sprague-Dawley, rat, whole blood, typical dose of 5 mg/kg, male rats, read-out: Rat PK Cmax, Prodrug): 510 ng/mL; Rat PK Hepatic extraction ratio of Prodrug ([4]; portal and jugular vein sampling): 0.97
